Measured values as given in US20250177476A1, “ANG-(1-7) OLIGOPEPTIDE DERIVATIVES FOR USE IN MITIGATING AMYLOID-RELATED IMAGING ABNORMALITIES” (ProNeurogen, Inc., priority 2023, published 2025).
No end group written: not given here.

Columns and labels:
[1] = FDA-approved food additive; cited from earlier work
[2] = tested on: Tg-SwDI mouse model of AD and cerebral amyloid angiopathy (CAA); assay: Cerebral microbleeds (ARIA-H) in Tg-SwDI mice given PNA5 with or without anti-Aβ antibody; format: in vivo; conditions: Tg-SwDI mice aged 12-13 months; PNA5 30 μL, with PBS or anti-Aβ antibody 3 mg/kg; 2 months; tissue analysis (FIGS. 1A and 1B)
Protocol: The effect the Ang-(1-7) oligopeptide PNA5 had on cerebral microbleeds (ARIA-H) in a mouse model of AD and cerebral amyloid angiopathy (CAA) was studied.
Tg-SwDI mice aged 12-13 months were administered: (1) the PNA5 vehicle, without PNA5, and PBS, (2) vehicle and an anti-Aβ antibody, (3) PNA5 and PBS, or (4) PNA5 and an anti-Aβ antibody. The anti-AB antibody therapy (IgG) was administered in an amount of 3 mg/kg. The PNA5 was administered in an amount of 30 μL. For groups receiving the PNA5 alone (Group 3), the compounds were administered for […] which point they were administered a […] (NOR) test and Nest building test (FIG. 2) prior to euthanasia and collection of the tissue for analysis of the microbleeds (FIGS. 1A and 1B). For groups receiving the anti-AB antibody and PNA5 (Group 4), the compounds were administered for 2 months at which point they were administered a […] (NOR) test and Nest building test prior (FIG. 2) to euthanasia and collection of the tissue for analysis of the microbleeds (FIGS. 1A and 1B).

| Compound | safe human daily intake [1] | cerebral microbleeds (ARIA-H) [2] |
| --- | --- | --- |
| CC(=O)OC[C@H]1O[C@H](O[C@]2(COC(C)=O)O[C@H](COC(=O)C(C)C)[C@@H](OC(=O)C(C)C)[C@@H]2OC(=O)C(C)C)[C@H](OC(=O)C(C)C)[C@@H](OC(=O)C(C)C)[C@@H]1OC(=O)C(C)C [SAIB, sucrose acetoisobutyrate] | up to 20 mg/kg | – |
| PNA5: Ang-(1-7) derivative Asp Arg Val Tyr Ile His Ser* (glycosylated serine), carboxyl terminal end NH2 (DRVYIHS-NH2; not fully specified (residue 7); also: glycan on Ser7 not given here) | – | decreased |
